# Tested on: Staphylococcus aureus (ATCC29213)
# Assay: In-vitro anti-bacterial activity, microtitre plate assay, IC90 determination (non-mycobacterial strains)
# Type: cell-based
# Conditions: 90% inhibitory concentration for bacterial growth, 24 hours, resazurin fluorescence
# Method in brief: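 Growth inhibition measured fluorometrically with resazurin (530/590 nm) after overnight 37 °C incubation under normal atmosphere. Bacteria added at roughly 100 TCID50 per well in Mueller-Hinton broth to five-fold compound dilution series; IC90 reported in μg/ml.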
row,Compound,IC90 STA B29213 [µg/mL]
1,COc1nc2ccc(S(C)(=O)=O)cc2cc1C(c1ccc(Cl)cc1)C1(O)CCNC(c2ccc(F)cc2C)C1 (stereo not drawn) [Compound 219],3.59
2,COc1nc2ccc(Br)cc2cc1C(c1ccc(Cl)cc1)C1(O)CCNCC1Cc1cccc(F)c1 (stereo not drawn) [Compound 228],1.80
3,COc1nc2ccc(SC)cc2cc1C(c1ccc(Cl)cc1)C1(O)CCNC(c2ccc(F)cc2C)C1 (stereo not drawn) [Compound 244],2.40
4,COc1nc2ccc(SC)cc2cc1C(c1ccc(Cl)cc1)C1(O)CCNC(c2ccc(F)cc2C)C1 (stereo not drawn) [Compound 245],1.91
5,COc1nc2ccc(Br)cc2cc1C(c1ccccc1)C1(O)CCNC(c2ccc(F)cc2C)C1 (stereo not drawn) [Compound 247],3.38
6,COc1nc2ccc(Br)cc2cc1C(c1ccccc1)C1(O)CCNC(c2ccc(F)cc2C)C1 (stereo not drawn) [Compound 248],3.38
7,COc1nc2ccc(Br)cc2cc1C(c1ccccc1)C1(O)CCNC(c2ccc(F)cc2C)C1 (stereo not drawn) [Compound 249],1.69
8,COc1nc2ccc(Br)cc2cc1C(c1ccccc1)C1(O)CCNC(c2ccc(F)cc2C)C1 (stereo not drawn) [Compound 250],1.69
9,COc1nc2ccc(S(C)(=O)=O)cc2cc1C(c1ccccc1)C1(O)CCNC(c2ccc(F)cc2C)C1 (stereo not drawn) [Compound 251],13.43
10,COc1nc2ccc(S(C)(=O)=O)cc2cc1C(c1ccccc1)C1(O)CCNC(c2ccc(F)cc2C)C1 (stereo not drawn) [Compound 252],>13.43
11,COc1nc2ccc(Br)cc2cc1C(c1ccc(Cl)cc1)C1(O)CCNC(CC2CCCCC2)C1 (stereo not drawn) [Compound 256],2.49
12,COc1nc2ccc(Br)cc2cc1C(c1ccc(Cl)cc1)C1(O)CCNC(CC2CCCCC2)C1 (stereo not drawn) [Compound 257],4.97
13,COc1nc2ccc(Br)cc2cc1C(c1ccc(Cl)cc1)C1(O)CCNC(CC2CCCCC2)C1 (stereo not drawn) [Compound 259],1.76
14,COc1nc2ccc(SC)cc2cc1C(c1ccc(Cl)cc1)C1(O)CCNC(Cc2ccc(F)cc2)C1 (stereo not drawn) [Compound 260],3.39
15,COc1nc2ccc(SC)cc2cc1C(c1ccc(Cl)cc1)C1(O)CCNC(Cc2ccc(F)cc2)C1 (stereo not drawn) [Compound 261],1.70
16,COc1nc2ccc(SC)cc2cc1C(c1ccc(Cl)cc1)C1(O)CCNC(Cc2ccc(F)cc2)C1 (stereo not drawn) [Compound 262],7.59
17,COc1nc2ccc(SC)cc2cc1C(c1ccc(Cl)cc1)C1(O)CCNC(c2ccc(F)cc2C)C1 (stereo not drawn) [Compound 273],3.39
18,COc1nc2ccc(SC)cc2cc1C(c1ccc(Cl)cc1)C1(O)CCNC(c2ccc(F)cc2C)C1 (stereo not drawn) [Compound 275],0.85
19,COc1nc2ccc(SC)cc2cc1C(c1ccc(Cl)cc1)C1(O)CCNCC1Cc1cccc(F)c1 (stereo not drawn) [Compound 283],3.39
20,COc1nc2ccc(SC)cc2cc1C(c1ccc(Cl)cc1)C1(O)CCNC(Cc2ccc(F)cc2)C1 (stereo not drawn) [Compound 299],1.70
21,COc1nc2ccc(SC)cc2cc1C(c1ccc(Cl)cc1)C1(O)CCNC(Cc2ccc(F)cc2)C1 (stereo not drawn) [Compound 300],1.07

# Tested on: Mycobacterium smegmatis (ATCC607)
# Assay: In-vitro anti-bacterial activity against strain M. Smegmatis ATCC607
# Type: cell-based
# Conditions: 90% inhibitory concentration for bacterial growth, 48 hours, Alamar Blue fluorescence
# Method in brief: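 IC90 (μg/ml) derived from Alamar Blue fluorescence (530/590 nm) after 48 h growth at 37 °C under 5% CO2. About 250 CFU per well in Mueller-Hinton broth faced five-fold serial compound dilutions in BSA-containing wells.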
row,Compound,IC90 MSM 607 [µg/mL]
1,COc1nc2ccc(S(C)(=O)=O)cc2cc1C(c1ccc(Cl)cc1)C1(O)CCNC(c2ccc(F)cc2C)C1 (stereo not drawn) [Compound 219],1.80
2,COc1nc2ccc(Br)cc2cc1C(c1ccc(Cl)cc1)C1(O)CCNCC1Cc1cccc(F)c1 (stereo not drawn) [Compound 228],2.86
3,COc1nc2ccc(SC)cc2cc1C(c1ccc(Cl)cc1)C1(O)CCNC(c2ccc(F)cc2C)C1 (stereo not drawn) [Compound 244],1.51
4,COc1nc2ccc(SC)cc2cc1C(c1ccc(Cl)cc1)C1(O)CCNC(c2ccc(F)cc2C)C1 (stereo not drawn) [Compound 245],1.07
5,COc1nc2ccc(Br)cc2cc1C(c1ccccc1)C1(O)CCNC(c2ccc(F)cc2C)C1 (stereo not drawn) [Compound 247],1.69
6,COc1nc2ccc(Br)cc2cc1C(c1ccccc1)C1(O)CCNC(c2ccc(F)cc2C)C1 (stereo not drawn) [Compound 248],2.68
7,COc1nc2ccc(Br)cc2cc1C(c1ccccc1)C1(O)CCNC(c2ccc(F)cc2C)C1 (stereo not drawn) [Compound 249],1.07
8,COc1nc2ccc(Br)cc2cc1C(c1ccccc1)C1(O)CCNC(c2ccc(F)cc2C)C1 (stereo not drawn) [Compound 250],1.35
9,COc1nc2ccc(S(C)(=O)=O)cc2cc1C(c1ccccc1)C1(O)CCNC(c2ccc(F)cc2C)C1 (stereo not drawn) [Compound 251],10.67
10,COc1nc2ccc(S(C)(=O)=O)cc2cc1C(c1ccccc1)C1(O)CCNC(c2ccc(F)cc2C)C1 (stereo not drawn) [Compound 252],>13.43
11,COc1nc2ccc(Br)cc2cc1C(c1ccc(Cl)cc1)C1(O)CCNC(CC2CCCCC2)C1 (stereo not drawn) [Compound 256],2.22
12,COc1nc2ccc(Br)cc2cc1C(c1ccc(Cl)cc1)C1(O)CCNC(CC2CCCCC2)C1 (stereo not drawn) [Compound 257],3.14
13,COc1nc2ccc(Br)cc2cc1C(c1ccc(Cl)cc1)C1(O)CCNC(CC2CCCCC2)C1 (stereo not drawn) [Compound 259],1.40
14,COc1nc2ccc(SC)cc2cc1C(c1ccc(Cl)cc1)C1(O)CCNC(Cc2ccc(F)cc2)C1 (stereo not drawn) [Compound 260],3.39
15,COc1nc2ccc(SC)cc2cc1C(c1ccc(Cl)cc1)C1(O)CCNC(Cc2ccc(F)cc2)C1 (stereo not drawn) [Compound 261],1.70
16,COc1nc2ccc(SC)cc2cc1C(c1ccc(Cl)cc1)C1(O)CCNC(Cc2ccc(F)cc2)C1 (stereo not drawn) [Compound 262],3.39
17,COc1nc2ccc(SC)cc2cc1C(c1ccc(Cl)cc1)C1(O)CCNC(c2ccc(F)cc2C)C1 (stereo not drawn) [Compound 273],1.70
18,COc1nc2ccc(SC)cc2cc1C(c1ccc(Cl)cc1)C1(O)CCNC(c2ccc(F)cc2C)C1 (stereo not drawn) [Compound 275],1.35
19,COc1nc2ccc(SC)cc2cc1C(c1ccc(Cl)cc1)C1(O)CCNCC1Cc1cccc(F)c1 (stereo not drawn) [Compound 283],3.39
20,COc1nc2ccc(SC)cc2cc1C(c1ccc(Cl)cc1)C1(O)CCNC(Cc2ccc(F)cc2)C1 (stereo not drawn) [Compound 299],1.35
21,COc1nc2ccc(SC)cc2cc1C(c1ccc(Cl)cc1)C1(O)CCNC(Cc2ccc(F)cc2)C1 (stereo not drawn) [Compound 300],1.70

# Tested on: not given
# Assay: not given
# Conditions: not given
row,Compound,melting point [°C]
1,COc1nc2ccc(S(C)(=O)=O)cc2cc1C(c1ccc(Cl)cc1)C1(O)CCNC(c2ccc(F)cc2C)C1 (stereo not drawn) [Compound 219],156
2,COc1nc2ccc(Br)cc2cc1C(c1ccc(Cl)cc1)C1(O)CCNCC1Cc1cccc(F)c1 (stereo not drawn) [Compound 228],196
3,COc1nc2ccc(SC)cc2cc1C(c1ccc(Cl)cc1)C1(O)CCNC(c2ccc(F)cc2C)C1 (stereo not drawn) [Compound 244],205
4,COc1nc2ccc(SC)cc2cc1C(c1ccc(Cl)cc1)C1(O)CCNC(c2ccc(F)cc2C)C1 (stereo not drawn) [Compound 245],147
5,COc1nc2ccc(Br)cc2cc1C(c1ccccc1)C1(O)CCNC(c2ccc(F)cc2C)C1 (stereo not drawn) [Compound 247],132
6,COc1nc2ccc(Br)cc2cc1C(c1ccccc1)C1(O)CCNC(c2ccc(F)cc2C)C1 (stereo not drawn) [Compound 248],134
7,COc1nc2ccc(Br)cc2cc1C(c1ccccc1)C1(O)CCNC(c2ccc(F)cc2C)C1 (stereo not drawn) [Compound 249],178
8,COc1nc2ccc(Br)cc2cc1C(c1ccccc1)C1(O)CCNC(c2ccc(F)cc2C)C1 (stereo not drawn) [Compound 250],125
9,COc1nc2ccc(S(C)(=O)=O)cc2cc1C(c1ccccc1)C1(O)CCNC(c2ccc(F)cc2C)C1 (stereo not drawn) [Compound 251],183
10,COc1nc2ccc(S(C)(=O)=O)cc2cc1C(c1ccccc1)C1(O)CCNC(c2ccc(F)cc2C)C1 (stereo not drawn) [Compound 252],152
11,COc1nc2ccc(Br)cc2cc1C(c1ccc(Cl)cc1)C1(O)CCNC(CC2CCCCC2)C1 (stereo not drawn) [Compound 256],118
12,COc1nc2ccc(Br)cc2cc1C(c1ccc(Cl)cc1)C1(O)CCNC(CC2CCCCC2)C1 (stereo not drawn) [Compound 257],108
13,COc1nc2ccc(Br)cc2cc1C(c1ccc(Cl)cc1)C1(O)CCNC(CC2CCCCC2)C1 (stereo not drawn) [Compound 259],168
14,COc1nc2ccc(SC)cc2cc1C(c1ccc(Cl)cc1)C1(O)CCNC(Cc2ccc(F)cc2)C1 (stereo not drawn) [Compound 260],104
15,COc1nc2ccc(SC)cc2cc1C(c1ccc(Cl)cc1)C1(O)CCNC(Cc2ccc(F)cc2)C1 (stereo not drawn) [Compound 261],122
16,COc1nc2ccc(SC)cc2cc1C(c1ccc(Cl)cc1)C1(O)CCNC(Cc2ccc(F)cc2)C1 (stereo not drawn) [Compound 262],94
17,COc1nc2ccc(SC)cc2cc1C(c1ccc(Cl)cc1)C1(O)CCNC(c2ccc(F)cc2C)C1 (stereo not drawn) [Compound 273],204
18,COc1nc2ccc(SC)cc2cc1C(c1ccc(Cl)cc1)C1(O)CCNC(c2ccc(F)cc2C)C1 (stereo not drawn) [Compound 275],140
19,COc1nc2ccc(SC)cc2cc1C(c1ccc(Cl)cc1)C1(O)CCNCC1Cc1cccc(F)c1 (stereo not drawn) [Compound 283],184
20,COc1nc2ccc(SC)cc2cc1C(c1ccc(Cl)cc1)C1(O)CCNC(Cc2ccc(F)cc2)C1 (stereo not drawn) [Compound 299],110
21,COc1nc2ccc(SC)cc2cc1C(c1ccc(Cl)cc1)C1(O)CCNC(Cc2ccc(F)cc2)C1 (stereo not drawn) [Compound 300],90

# Source: patent US9617244B2, “Antibacterial quinoline derivatives” (JANSSEN PHARMACEUTICA NV, priority 2012, dated 2017)
